Source: patent publication US20060281769A1, “SYNERGISTIC MODULATION OF FLT3 KINASE USING THIENOPYRIMIDINE AND THIENOPYRIDINE KINASE MODULATORS” (priority 2005, published 2006)
“Also recorded” adds a separate entry of the source.

Key:
[1] = test system: relapsed and refractory AML; settings: cited from earlier work
MV4-11 AML cells = experiment: Cell proliferation assay MV4-11, single agents and FTI/FLT3 inhibitor combinations; assay type: cell-based, human; settings: 72-hour cell proliferation assay, FLT3 dependent cells, depending on the cell type
From the text: (§1) All data points are an average of triplicate samples.
as §1

[2] = Tolerability in tumor-bearing nude mice (body weight, overt clinical signs); settings: either agent alone or in combination
Procedure: Female athymic nude mice weighing no less than 20-21 grams were inoculated subcutaneously in the left inguinal region of the thigh with 5×10^6 tumor cells in a delivery volume of 0.2 mL. For regression studies, the tumors were allowed to grow to a pre-determined size prior to initiation of dosing. […] Mice were dosed orally by gavage with vehicle (control group) or compound at various doses twice-daily (b.i.d.) during the week and once-daily (q.d.) on weekends. Dosing was continued for 11 consecutive days, depending on the kinetics of tumor growth and size of tumors in vehicle-treated control mice. […] During the study, tumor growth was measured three times-a-week (M, W, F) using electronic Vernier calipers. Tumor volume (mm^3) was calculated using the formula […], where L=length (mm) and W=width (shortest distance in mm) of the tumor. Body weight was measured three times-a-week and a loss of body weight >10% was used as an indication of lack of compound tolerability. […]
Female athymic nude mice weighing no less than 20-21 grams were inoculated subcutaneously in the left inguinal region of the thigh with 5×10^6 tumor cells in a delivery volume of 0.2 mL. For regression studies, the tumors were allowed to grow to a pre-determined size prior to initiation of dosing. […] During the study, tumor growth was measured three times-a-week (M, W, F) using electronic Vernier calipers. […]

MV4-11 tumor xenografts = experiment: MV4-11 human tumor xenograft regression model in nude mice; assay type: in vivo; settings: Tipifarnib 50 mg/kg oral single agent
Procedure: Female athymic nude mice (CD-1, nu/nu, 9-10 weeks old) were obtained from Charles River Laboratories (Wilmington, Mass.) and were maintained according to NIH standards. All mice were group housed (5 mice/cage) under clean-room conditions in sterile micro-isolator cages on a 12-hour light/dark cycle in a room maintained at 21-22° C. and 40-50% humidity. Mice were fed irradiated standard rodent diet and water ad libitum. All animals were housed in a Laboratory Animal Medicine facility that is fully accredited by the American Association for Assessment and Accreditation of Laboratory Animal Care (AAALAC). All procedures involving animals were conducted in compliance with the NIH Guide for the Care and Use of Laboratory Animals and all protocols were approved by an Internal Animal Care and Use Committee (IACUC).
On the day of study termination, a final tumor volume and final body weight were obtained on each animal. […]
The time course of the inhibitory effects of FLT3 inhibitor compounds on the growth of MV4-11 tumors is illustrated in FIG. 1. […] Percent inhibition (% I) of tumor growth was calculated versus tumor growth in the vehicle-treated Control group on the last study day.
(See FIG. 2). […] Percent Inhibition was calculated versus the mean tumor weight in the vehicle-treated control group. Statistical significance versus Control was determined by ANOVA followed by Dunnett's t-test: ** p<0.01. […]

[3] = multicenter Phase II trial, relapsed AML
[4] = patients with relapsed and refractory AML, phase I

## Cn1cncc1C(N)(c1ccc(Cl)cc1)c1ccc2c(c1)c(-c1cccc(Cl)c1)cc(=O)n2C (single isomer, unassigned; (+)) [Tipifarnib, (+)-6-[amino(4-chlorophenyl)(1-methyl-1H-imidazol-5-yl)methyl]-4-(3-chlorophenyl)-1-methyl-2(1H)-quinolinone]
[1]; [3]
  >50% reduction in bone marrow blasts: 31 of 50
  complete responses (bone marrow blasts <5%): 17 of 50
[1]; [4]
  patients achieving complete remission: 2 patients
  response rate: ~30%
MV4-11 AML cells
  potency for inhibition of proliferation, single agent: high nanomolar to high picomolar
[2]; 9-day treatment period
  overt toxicity and adverse effects on body weight: No overt toxicity
[2]; 16-day treatment period
  overt toxicity and adverse effects on body weight: No overt toxicity
MV4-11 tumor xenografts; nine days, Day 9
  effect on tumor volume versus control: not significantly reduced; also recorded: ineffective
MV4-11 tumor xenografts; sixteen days
  effect on tumor growth: ineffective
